In patent US20260070927A1, “INDAZOLE MACROCYCLES FOR THE TREATMENT OF AUTOIMMUNE DISEASE” (Hoffmann-La Roche Inc., priority 2022, published 2026):
Read-outs that look alike come from different tables or passages of the source.

Experiments:
[1] = Single dose pharmacokinetics (SDPK) study in male C57BL/6J mice; assay type: in vivo; details: mouse; for clearance / AUC / half-life / Vd / Cmax: male, C57BL/6J, plasma; for half-life: read-out: T½ (converted); for Vd: read-out: Vss; for F: dose normalized AUCo-last after IV 1 mg/kg and PO 10 mg/kg
Procedure: Single Dose Pharmacokinetics (SDPK) Study in Male C57BL/6J Mice Pharmacokinetic properties of compounds were assessed by single dose PK studies in Male C57BL/6J Mice (vendor: WTLH-BJ). Briefly, two groups of animals were administered a single dose of respective compound intravenously (IV, bolus) at 1 mg/kg or orally (PO, by gavage) at 10 mg/kg. Blood samples were collected via Jugular vein at 5 min (only for IV), 15 min, 30 min, 1 h, 2 h, 4 h, 7 h and 24 h post-dose. Blood samples were placed into pre-chilled commercial EDTA-K2 tubes (vendor: Jiangsu Kangjian medical supplies co., LTD) and centrifuged at 3,200 g for 10 min at 4° C. to separate plasma from the samples. After centrifugation, the resulting plasma was transferred to clean tubes for bioanalysis with LC/MS/MS. The pharmacokinetic parameters were calculated using noncompartmental analysis. The volume of distribution (Vss), half-life (T1/2) and clearance (CL) were obtained based on the plasma concentration-time curve after IV dose. The peak concentration (Cmax) was recorded directly from experimental observations after PO dose. The area under the plasma concentration-time curve (AUCo-last) was calculated using the linear trapezoidal linear interpolation rule up to the last detectable concentration. The bioavailability (F) was calculated based on the dose normalized AUCo-last after IV and PO dose.

[2] = biological target: hERG channel (Homo sapiens (Human), UniProt Q12809); assay: hERG channel inhibition assay (patch-clamp, CHOhERG cells); assay type: cell-based; details: for IC20: human, CHO cells stably expressing hERG (CHOhERG)
Source text: The hERG K^+ channels were cloned in humans and stably expressed in a CHO (Chinese hamster ovary) cell line. CHOhERG cells (obtained from Roche Palo Alto LLC Cell Core Facilities) were used for patch-clamp (voltage-clamp, whole-cell) experiments. Cells were stimulated by a voltage pattern to activate hERG channels and conduct IKhERG currents (rapid delayed outward rectifier potassium current of the hERG channel). After the cells were stabilized in an internal solution that contains (in mM): KCl 10, KF 100, NaCl 10, HEPES 10, EGTA 20, pH=7.2 with KOH (osmolarity 260-300 mOsm) for a few minutes, the amplitude and kinetics of IKhERG were recorded at a stimulation frequency of 0.1 Hz (6 bpm). Thereafter, the test compound was dissolved in extracellular solution that contains (in mM): NaCl 150, KCl 4, CaCl2 1.2, MgCl2 1, HEPES 10, glucose 5, pH 7.2-7.4 with NaOH (osmolarity 290-330 mOsm), and was added to the preparation at increasing concentrations. For each concentration, an attempt was made to reach a steady-state effect, usually, this was achieved within 3-10 min at which time the next highest concentration was applied. The amplitude and kinetics of IKhERG are recorded in each concentration of the drug which were compared to the control values (taken as 100%).

[3] = Metabolic (liver microsomal) stability assay; details: human liver microsomes, 1 μM test compound
Procedure: (§1) The liver microsomal stability assay is used for early assessment of metabolic stability of a test compound in liver microsomes.
(§2) Liver microsomes were preincubated with test compound for 10 minutes at 37° C. in 100 mM potassium phosphate buffer, pH 7.4. The reactions were initiated by adding NADPH regenerating system. The final incubation mixtures contained 1 μM test compound, 0.5 mg/mL liver microsomal protein, 1 mM MgCl2, 1 mM NADP, 1 unit/mL isocitric dehydrogenase and 6 mM isocitric acid in 100 mM potassium phosphate buffer, pH 7.4. After incubation times of 0, 3, 6, 9, 15 and 30 minutes at 37° C., 300 μL of cold acetonitrile (including internal standard) was added to 100 μL incubation mixture to terminate the reaction. Following precipitation and centrifugation, the amount of compound remaining in the samples were determined by LC-MS/MS. Controls of no NADPH regenerating system at zero and 30 minutes were also prepared and analyzed.

[4] = biological target: human stimulator of interferon genes (STING) (139-379) (Homo sapiens (Human), UniProt Q86WV6); assay: Microliter plate-based TR-FRET competition-binding assay for binders of STING; details: Alexa488 probe, read-out: FRET_IC50
How it was run: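 E. coli-expressed C-terminal flag-tagged STING (139-379) at 2.5 nM with 2.5 nM Tb-anti-Flag and 250 nM Alexa488-labelled active-site probe, 30 min at room temperature. TR-FRET 520/485 nm ratio after 320 nm excitation. Percent inhibition calculated relative to the 2′3′cGAMP positive control.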

[5] = system: STING (IFN-β in hPBMC); assay: hPBMC cytokine functional assay (IFN-β decrease after Baculovirus stimulation); assay type: cell-based; details: Homo sapiens, Baculovirus MOI 40, 24 hours, read-out: hPBMC_IC50
How it was run: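 Thawed hPBMC (70K cells/well) rested ≥3 h, then dosed with compound (final 0.5% DMSO) and infected with Baculovirus at MOI 40. Secreted IFN-β read by HTRF after 24 h at 37 °C. Cell viability checked in parallel by CellTiter-Glo.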

[6] = microsomes
Procedure: as §1, §2

[7] = IV 1 mg/kg, read-out: IV AUCo-last
[8] = PO 10 mg/kg, read-out: PO AUCo-last

Chain of human stimulator of interferon genes (STING) (139-379) (Q86WV6 139-379): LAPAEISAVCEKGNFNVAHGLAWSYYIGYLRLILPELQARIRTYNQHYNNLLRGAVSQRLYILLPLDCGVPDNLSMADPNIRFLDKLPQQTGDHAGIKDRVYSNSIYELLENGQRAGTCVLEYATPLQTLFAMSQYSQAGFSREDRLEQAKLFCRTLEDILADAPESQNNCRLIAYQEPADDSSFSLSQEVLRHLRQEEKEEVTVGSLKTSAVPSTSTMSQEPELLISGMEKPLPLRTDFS
Chain of hERG channel (Q12809 whole entry): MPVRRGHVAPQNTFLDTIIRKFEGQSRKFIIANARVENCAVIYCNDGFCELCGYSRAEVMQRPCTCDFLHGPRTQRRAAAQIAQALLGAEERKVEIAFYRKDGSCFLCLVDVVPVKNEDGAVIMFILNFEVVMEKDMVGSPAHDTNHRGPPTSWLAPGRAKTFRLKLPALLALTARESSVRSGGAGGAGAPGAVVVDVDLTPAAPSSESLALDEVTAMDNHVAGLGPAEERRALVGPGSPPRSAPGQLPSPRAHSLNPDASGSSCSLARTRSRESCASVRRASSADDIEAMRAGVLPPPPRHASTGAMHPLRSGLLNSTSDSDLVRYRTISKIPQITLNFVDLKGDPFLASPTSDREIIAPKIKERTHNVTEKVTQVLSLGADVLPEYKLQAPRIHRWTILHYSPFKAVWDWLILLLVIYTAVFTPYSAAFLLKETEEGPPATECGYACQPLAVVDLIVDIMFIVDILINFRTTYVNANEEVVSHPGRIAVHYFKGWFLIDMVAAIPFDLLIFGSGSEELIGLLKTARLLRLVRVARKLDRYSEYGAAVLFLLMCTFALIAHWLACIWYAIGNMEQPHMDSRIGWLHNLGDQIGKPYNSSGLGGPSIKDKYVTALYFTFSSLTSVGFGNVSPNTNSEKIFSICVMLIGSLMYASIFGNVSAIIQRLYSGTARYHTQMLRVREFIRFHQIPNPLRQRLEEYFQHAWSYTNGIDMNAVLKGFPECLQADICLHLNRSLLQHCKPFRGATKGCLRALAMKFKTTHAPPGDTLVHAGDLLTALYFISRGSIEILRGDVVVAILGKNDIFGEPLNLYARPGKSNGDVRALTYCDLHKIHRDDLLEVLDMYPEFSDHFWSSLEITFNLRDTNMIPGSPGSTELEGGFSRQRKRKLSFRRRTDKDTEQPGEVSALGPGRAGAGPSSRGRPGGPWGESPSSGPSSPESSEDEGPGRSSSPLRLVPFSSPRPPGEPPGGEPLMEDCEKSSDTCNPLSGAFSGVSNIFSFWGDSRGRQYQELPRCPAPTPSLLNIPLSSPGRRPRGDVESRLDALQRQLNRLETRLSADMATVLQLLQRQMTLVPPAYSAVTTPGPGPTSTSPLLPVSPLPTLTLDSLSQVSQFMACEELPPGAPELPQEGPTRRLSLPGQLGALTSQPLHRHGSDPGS

Row | SMILES | clearance ([1]; IV 1 mg/kg) | AUC [1, 7] | half-life ([1]; IV 1 mg/kg) | Vd ([1]; IV 1 mg/kg) | Cmax ([1]; PO 10 mg/kg) | AUC [1, 8] | F [1] | IC50 [2] | IC20 [2] | Clearance of human microsome [3] | IC50 [4] | IC50 [5] | Clearance of human microsome [6]
1 | COc1cc(F)ccc1-n1ncc2c(N3C[C@@H]4C[C@H]3C(=O)N(C)CCCc3c5c(cccc5nn3C)-c3ccnc(n3)N4)ncnc21 [Example 6, (8S,11S)-10-[1-(4-fluoro-2-methoxy-phenyl)pyrazolo[3,4-d]pyrimidin-4-yl]-13,18-dimethyl-5,7,10,13,18,19,26-heptazapentacyclo[15.6.1.1^2,6.1^8,11.0^20,24]hexacosa-1(23),2,4,6(26),17(24),19,21-heptaen-12-one] | 14.5 mL/min/kg | 1120 ng·h/mL | 48 min | 0.9 L/kg | 2990 ng/mL | 4740 ng·h/mL | 42% | > 20 µM | > 10 µM | 15.7 mL/min/kg | 5 nM | 588 nM | –
2 | CN1CCCc2c3c(cccc3nn2C)-c2cccc(n2)O[C@H]2C[C@@H](C1=O)N(c1ncnc3c1cnn3-c1ccc(F)cc1F)C2 [Example 9, (8S,11S)-10-[1-(2,4-difluorophenyl)pyrazolo[3,4-d]pyrimidin-4-yl]-13,18-dimethyl-7-oxa-10,13,18,19,26-pentazapentacyclo[15.6.1.1^2,6.1^8,11.0^20,24]hexacosa-1(23),2(26),3,5,17(24),19,21-heptaen-12-one] | – | – | – | – | – | – | – | > 20 µM | > 10 µM | 11.6 mL/min/kg | 17.8 nM | 1580 nM | –
3 | Cn1nc2cccc3c2c1CCCNC(=O)[C@@H]1C[C@@H](CN1c1ncnc2c1cnn2-c1ccc(F)cc1F)Oc1ccnc-3c1 [Example 10, (8S,11S)-10-[1-(2,4-difluorophenyl)pyrazolo[3,4-d]pyrimidin-4-yl]-18-methyl-7-oxa-3,10,13,18,19-pentazapentacyclo[15.6.1.1^2,6.1^8,11.0^20,24]hexacosa-1(23),2(26),3,5,17(24),19,21-heptaen-12-one] | – | – | – | – | – | – | – | > 10 µM | 8.2 µM | 8.3 mL/min/kg | 5.1 nM | – | –
4 | CN1CCCc2c3c(cccc3nn2C)-c2ccnc(n2)O[C@H]2C[C@@H](C1=O)N(c1ncnc3c1cnn3-c1ccc(F)cc1F)C2 [Example 11, (8S,11S)-10-[1-(2,4-difluorophenyl)pyrazolo[3,4-d]pyrimidin-4-yl]-13,18-dimethyl-7-oxa-5,10,13,18,19,26-hexazapentacyclo[15.6.1.1^2,6.1^8,11.0^20,24]hexacosa-1(23),2(26),3,5,17(24),19,21-heptaen-12-one] | 11.1 mL/min/kg | 1500 ng·h/mL | 60 min | 0.8 L/kg | 2780 ng/mL | 7120 ng·h/mL | 48% | > 20 µM | > 10 µM | 6.1 mL/min/kg | 21.4 nM | 803 nM | –
5 | COc1cc(F)ccc1-n1ncc2c(N3C[C@@H]4C[C@H]3C(=O)N(CCCN3CCOCC3)CCCc3c5c(cccc5nn3C)-c3cccc(n3)N4)ncnc21 [Example 43, (8S,11S)-10-[1-(4-fluoro-2-methoxy-phenyl)pyrazolo[3,4-d]pyrimidin-4-yl]-18-methyl-13-(3-morpholinopropyl)-7,10,13,18,19,26-hexazapentacyclo[15.6.1.1^2,6.1^8,11.0^20,24]hexacosa-1(23),2(26),3,5,17(24),19,21-heptaen-12-one] | – | – | – | – | – | – | – | > 20 µM | > 10 µM | 12.0 mL/min/kg | 3.5 nM | 292 nM | –
6 | COc1cc(F)ccc1-n1ncc2c(N3C[C@@H]4C[C@H]3C(=O)N(CCCN3CCOCC3)CCCc3c5c(cccc5nn3C)-c3ccnc(n3)N4)ncnc21 [Example 47, (8S,11S)-10-[1-(4-fluoro-2-methoxy-phenyl)pyrazolo[3,4-d]pyrimidin-4-yl]-18-methyl-13-(3-morpholinopropyl)-5,7,10,13,18,19,26-heptazapentacyclo[15.6.1.1^2,6.1^8,11.0^20,24]hexacosa-1(23),2(26),3,5,17(24),19,21-heptaen-12-one] | – | – | – | – | – | – | – | – | – | – | 7.2 nM | – | 6.1 mL/min/kg
